assay: AUClast in rat at 2 mg/kg, po; type: ADME, organism-based; parameters: time 0 - last, dose 2 mg/kg, route po; settings: in vivo

| SMILES | AUC(0-t) [µM·h] | AUClast [µM·h] |
| --- | --- | --- |
| COc1cc(OCc2csc(N3CCOCC3)n2)c2cc(-c3cn4nc(OC)sc4n3)oc2c1 | 16.2 |  |
| COc1cc(OCc2csc(-c3ccc(C(F)(F)F)cc3)n2)c2cc(-c3cn4nc(OC)sc4n3)oc2c1 | 1.3 |  |
| COc1cc(OCc2cccc(N3CCOCC3)n2)c2cc(-c3cn4nc(OC)sc4n3)oc2c1 | 7.3 |  |
| COc1cc(OCc2csc(-c3ccc(S(C)(=O)=O)cc3)n2)c2cc(-c3cn4nc(OC)sc4n3)oc2c1 | 0.26 |  |
| COc1cc(OCc2csc(N3CCN(C)CC3)n2)c2cc(-c3cn4nc(OC)sc4n3)oc2c1 | 1.8 |  |
| COc1cc(OCc2nc(N3CCOCC3)sc2C(F)(F)F)c2cc(-c3cn4nc(OC)sc4n3)oc2c1 | 2.4 |  |
| COc1cc(OCc2ccnc(-c3ccccc3)n2)c2cc(-c3cn4nc(OC)sc4n3)oc2c1 | 7.4 |  |
| COc1cc(OCc2csc(C3CCC(F)(F)CC3)n2)c2cc(-c3cn4nc(OC)sc4n3)oc2c1 | 0.8 |  |
| COc1cc(OCc2csc(N3CCCCC3)n2)c2cc(-c3cn4nc(OC)sc4n3)oc2c1 | 21.6 |  |
| COc1cc(OCc2csc(-c3ccc(C(=O)N(C)C)cc3)n2)c2cc(-c3cn4nc(OC)sc4n3)oc2c1 [BMS-986141] |  | 3.1 |
| COc1cc(OCc2csc(-c3ccc(C(=O)N4CCCC4)cc3)n2)c2cc(-c3cn4nc(OC)sc4n3)oc2c1 | 3 |  |
| COc1cc(OCc2coc(N3CCOCC3)n2)c2cc(-c3cn4nc(OC)sc4n3)oc2c1 | 13.1 |  |
| COc1cc(OCc2csc(-c3ccc(C(C)(C)O)cc3)n2)c2cc(-c3cn4nc(OC)sc4n3)oc2c1 | 0.92 |  |
| COc1cc(OCc2cc(C(F)(F)F)ccc2C)c2cc(-c3cn4nc(OC)sc4n3)oc2c1 | 1.9 |  |
| COc1cc(OCc2csc(-c3ccc(C(=O)N4CCC(F)(F)C4)cc3)n2)c2cc(-c3cn4nc(OC)sc4n3)oc2c1 | 0.58 |  |
| COc1cc(OCc2ccnc(N3CCOCC3)n2)c2cc(-c3cn4nc(OC)sc4n3)oc2c1 | 7.5 |  |
| COc1cc(OCc2csc(C3CCOCC3)n2)c2cc(-c3cn4nc(OC)sc4n3)oc2c1 | 3.7 |  |
| COc1cc(OCc2nc(N3CCOCC3)sc2C)c2cc(-c3cn4nc(OC)sc4n3)oc2c1 |  | 23.7 |
| COc1cc(OCc2csc(N3CC4CCC(C3)O4)n2)c2cc(-c3cn4nc(OC)sc4n3)oc2c1 | 1.9 |  |
| CNC(=O)c1ccc(-c2nc(COc3cc(OC)cc4oc(-c5cn6nc(OC)sc6n5)cc34)cs2)cc1 | 0.04 |  |
| COc1cc(OCc2csc(N3CCCOCC3)n2)c2cc(-c3cn4nc(OC)sc4n3)oc2c1 | 5 |  |

Continued, values first:

| AUC(0-t) [µM·h] | AUClast [µM·h] | SMILES |
| --- | --- | --- |
| 1.2 |  | COc1cc(OCc2cccc(-c3ccc(C#N)cc3)c2)c2cc(-c3cn4nc(OC)sc4n3)oc2c1 |
| 0.91 |  | COc1cc(OCc2cccc(-c3ccc(C#N)cn3)c2)c2cc(-c3cn4nc(OC)sc4n3)oc2c1 |
| 8 |  | COc1cc(OCc2csc(-c3ccccc3)n2)c2cc(-c3cn4nc(OC)sc4n3)oc2c1 |
| 1.4 |  | COc1cc(OCc2cccc(-c3cnc(OC)cn3)c2)c2cc(-c3cn4nc(OC)sc4n3)oc2c1 |
| 3.5 |  | COc1cc(OCc2cccc(-c3ccc(OC)nc3)c2)c2cc(-c3cn4nc(OC)sc4n3)oc2c1 |
| 2 |  | COc1cc(OCc2cccc(-c3cnc(OC)nc3)c2)c2cc(-c3cn4nc(OC)sc4n3)oc2c1 |
| 5.5 |  | COc1cc(OCc2ccccc2)c2cc(-c3cn4nc(OC)sc4n3)oc2c1 |
| 10.9 |  | COc1cc(OCc2cccc(-c3ccoc3)c2)c2cc(-c3cn4nc(OC)sc4n3)oc2c1 |
| 0.83 |  | COc1cc(OCc2cccc(-c3ccc(C(F)(F)F)cn3)c2)c2cc(-c3cn4nc(OC)sc4n3)oc2c1 |
| 3.3 |  | COc1ccc(-c2cccc(COc3cc(OC)cc4oc(-c5cn6nc(OC)sc6n5)cc34)c2)nc1 |
| 0.66 |  | COc1cc(OCc2cccc(OCc3ccccc3)c2)c2cc(-c3cn4nc(OC)sc4n3)oc2c1 |

assay: Drug concentration in rat at 2 mg/kg, po measured after 24 hrs; type: ADME, organism-based; settings: in vivo, po, 2 mg/kg, 24 h, BLD = below limit of detection

| Drug uptake | SMILES |
| --- | --- |
| Bld | COc1cc(OCc2csc(-c3ccc(C(N)=O)cc3)n2)c2cc(-c3cn4nc(OC)sc4n3)oc2c1 |
| Bld | COc1cc(OCc2cccc(-c3ccc(C(F)(F)F)cn3)c2)c2cc(-c3cn4nc(OC)sc4n3)oc2c1 |
| Bld | CNC(=O)c1ccc(-c2nc(COc3cc(OC)cc4oc(-c5cn6nc(OC)sc6n5)cc34)cs2)cc1 |

same assay, conditions: in vivo, read-out: Drug uptake

| SMILES | concentration at 24 h [nM] |
| --- | --- |
| COc1cc(OCc2csc(N3CCOCC3)n2)c2cc(-c3cn4nc(OC)sc4n3)oc2c1 | 240 |
| COc1cc(OCc2csc(-c3ccc(C(F)(F)F)cc3)n2)c2cc(-c3cn4nc(OC)sc4n3)oc2c1 | 9 |
| COc1cc(OCc2cccc(N3CCOCC3)n2)c2cc(-c3cn4nc(OC)sc4n3)oc2c1 | 93 |
| COc1cc(OCc2csc(-c3ccc(S(C)(=O)=O)cc3)n2)c2cc(-c3cn4nc(OC)sc4n3)oc2c1 | 2 |
| COc1cc(OCc2csc(N3CCN(C)CC3)n2)c2cc(-c3cn4nc(OC)sc4n3)oc2c1 | 5 |
| COc1cc(OCc2nc(N3CCOCC3)sc2C(F)(F)F)c2cc(-c3cn4nc(OC)sc4n3)oc2c1 | 14 |
| COc1cc(OCc2ccnc(-c3ccccc3)n2)c2cc(-c3cn4nc(OC)sc4n3)oc2c1 | 94 |
| COc1cc(OCc2csc(C3CCC(F)(F)CC3)n2)c2cc(-c3cn4nc(OC)sc4n3)oc2c1 | 21 |
| COc1cc(OCc2csc(N3CCCCC3)n2)c2cc(-c3cn4nc(OC)sc4n3)oc2c1 | 340 |
| COc1cc(OCc2csc(-c3ccc(C(=O)N(C)C)cc3)n2)c2cc(-c3cn4nc(OC)sc4n3)oc2c1 [BMS-986141] | 4.7 |
| COc1cc(OCc2csc(-c3ccc(C(=O)N4CCCC4)cc3)n2)c2cc(-c3cn4nc(OC)sc4n3)oc2c1 | 4.7 |
| COc1cc(OCc2coc(N3CCOCC3)n2)c2cc(-c3cn4nc(OC)sc4n3)oc2c1 | 69 |
| COc1cc(OCc2csc(-c3ccc(C(C)(C)O)cc3)n2)c2cc(-c3cn4nc(OC)sc4n3)oc2c1 | 6.7 |
| COc1cc(OCc2cc(C(F)(F)F)ccc2C)c2cc(-c3cn4nc(OC)sc4n3)oc2c1 | 12 |
| COc1cc(OCc2csc(-c3ccc(C(=O)N4CCC(F)(F)C4)cc3)n2)c2cc(-c3cn4nc(OC)sc4n3)oc2c1 | 1.8 |
| COc1cc(OCc2ccnc(N3CCOCC3)n2)c2cc(-c3cn4nc(OC)sc4n3)oc2c1 | 86 |
| COc1cc(OCc2csc(C3CCOCC3)n2)c2cc(-c3cn4nc(OC)sc4n3)oc2c1 | 28 |
| COc1cc(OCc2nc(N3CCOCC3)sc2C)c2cc(-c3cn4nc(OC)sc4n3)oc2c1 | 230 |
| COc1cc(OCc2csc(N3CC4CCC(C3)O4)n2)c2cc(-c3cn4nc(OC)sc4n3)oc2c1 | 12 |
| COc1cc(OCc2csc(N3CCCOCC3)n2)c2cc(-c3cn4nc(OC)sc4n3)oc2c1 | 49 |

Continued, values first:

| concentration at 24 h [nM] | SMILES |
| --- | --- |
| 13 | COc1cc(OCc2cccc(-c3ccc(C#N)cc3)c2)c2cc(-c3cn4nc(OC)sc4n3)oc2c1 |
| 13 | COc1cc(OCc2cccc(-c3ccc(C#N)cn3)c2)c2cc(-c3cn4nc(OC)sc4n3)oc2c1 |
| 89 | COc1cc(OCc2csc(-c3ccccc3)n2)c2cc(-c3cn4nc(OC)sc4n3)oc2c1 |
| 7.7 | COc1cc(OCc2cccc(-c3cnc(OC)cn3)c2)c2cc(-c3cn4nc(OC)sc4n3)oc2c1 |
| 19 | COc1cc(OCc2cccc(-c3ccc(OC)nc3)c2)c2cc(-c3cn4nc(OC)sc4n3)oc2c1 |
| 29 | COc1cc(OCc2cccc(-c3cnc(OC)nc3)c2)c2cc(-c3cn4nc(OC)sc4n3)oc2c1 |
| 46 | COc1cc(OCc2ccccc2)c2cc(-c3cn4nc(OC)sc4n3)oc2c1 |
| 140 | COc1cc(OCc2cccc(-c3ccoc3)c2)c2cc(-c3cn4nc(OC)sc4n3)oc2c1 |
| 22 | COc1ccc(-c2cccc(COc3cc(OC)cc4oc(-c5cn6nc(OC)sc6n5)cc34)c2)nc1 |
| 3 | COc1cc(OCc2cccc(OCc3ccccc3)c2)c2cc(-c3cn4nc(OC)sc4n3)oc2c1 |

assay: Volume of distribution at steady state in rat at 2 mg/kg, po or 0.5 mg/kg, iv; type: ADME, organism-based; settings: in vivo

| Vdss [L/kg] | SMILES |
| --- | --- |
| 2.7 | COc1cc(OCc2csc(-c3ccc(C(=O)N(C)C)cc3)n2)c2cc(-c3cn4nc(OC)sc4n3)oc2c1 [BMS-986141] |
| 1.4 | COc1cc(OCc2nc(N3CCOCC3)sc2C)c2cc(-c3cn4nc(OC)sc4n3)oc2c1 |

assay: Volume of distribution at steady state in dog at 1 mg/kg, po or 0.5 mg/kg, iv; type: ADME, organism-based, Canis lupus familiaris; settings: in vivo

| Vdss [L/kg] | SMILES |
| --- | --- |
| 2.7 | COc1cc(OCc2csc(-c3ccc(C(=O)N(C)C)cc3)n2)c2cc(-c3cn4nc(OC)sc4n3)oc2c1 [BMS-986141] |
| 5.9 | COc1cc(OCc2nc(N3CCOCC3)sc2C)c2cc(-c3cn4nc(OC)sc4n3)oc2c1 |

assay: Volume of distribution at steady state in cynomolgus monkey at 1 mg/kg, po or 0.5 mg/kg, iv; type: ADME, organism-based, Macaca fascicularis; settings: in vivo

| Vdss [L/kg] | SMILES |
| --- | --- |
| 14 | COc1cc(OCc2csc(-c3ccc(C(=O)N(C)C)cc3)n2)c2cc(-c3cn4nc(OC)sc4n3)oc2c1 [BMS-986141] |
| 11 | COc1cc(OCc2nc(N3CCOCC3)sc2C)c2cc(-c3cn4nc(OC)sc4n3)oc2c1 |

assay: Oral bioavailability in rat at 2 mg/kg; type: ADME, organism-based; settings: in vivo

| F [%] | SMILES |
| --- | --- |
| 31 | COc1cc(OCc2csc(-c3ccc(C(=O)N(C)C)cc3)n2)c2cc(-c3cn4nc(OC)sc4n3)oc2c1 [BMS-986141] |
| 21 | COc1cc(OCc2nc(N3CCOCC3)sc2C)c2cc(-c3cn4nc(OC)sc4n3)oc2c1 |

assay: Oral bioavailability in dog at 1 mg/kg; type: ADME, organism-based, Canis lupus familiaris; settings: in vivo

| bioavailability [%] | SMILES |
| --- | --- |
| 25 | COc1cc(OCc2csc(-c3ccc(C(=O)N(C)C)cc3)n2)c2cc(-c3cn4nc(OC)sc4n3)oc2c1 [BMS-986141] |
| 19 | COc1cc(OCc2nc(N3CCOCC3)sc2C)c2cc(-c3cn4nc(OC)sc4n3)oc2c1 |

assay: Oral bioavailability in cynomolgus monkey at 1 mg/kg; type: ADME, organism-based, Macaca fascicularis; settings: in vivo

| bioavailability [%] | SMILES |
| --- | --- |
| 36 | COc1cc(OCc2csc(-c3ccc(C(=O)N(C)C)cc3)n2)c2cc(-c3cn4nc(OC)sc4n3)oc2c1 [BMS-986141] |
| 26 | COc1cc(OCc2nc(N3CCOCC3)sc2C)c2cc(-c3cn4nc(OC)sc4n3)oc2c1 |

Reference: ChEMBL document CHEMBL5143717 (J Med Chem, 2022)
